Converted amounts (≈) assume the structure as drawn.
Experiment: physchem
Format: physicochemical
Conditions: 30 °C, pH 7.5, aqueous buffer
Protocol: This process can be carried out in reaction mixtures comprised of two phases: an aqueous phase, which initially contains enzyme and dissolved 2-isobutyl-succinonitrile, and an organic phase, which consist mainly of racemic 2-isobutyl-succinonitrile. Two-phase reaction mixtures are prepared by adding 2-isobutyl-succinonitrile to an aqueous solution of enzyme and buffer agents such that the amount of 2-isobutyl-succinonitrile added exceeds it aqueous solubility limit. The aqueous solubility limit of 2-isobutyl-succinonitrile in 50 mM potassium phosphate (30° C., pH 7.5) is approximately 0.06M. Over the course of the reaction, (S)-3-cyano-5-methylhexanoic acid ammonium salt is formed and increases in concentration in the aqueous phase, while the organic phase decreases in volume and becomes enriched in (R)-2-isobutyl-succinonitrile. Alternately, this process can also be carried out in reaction mixtures comprised of three phases: an aqueous phase, which initially contains dissolved 2-isobutyl-succinonitrile, an organic phase, which consists mainly of racemic 2-isobutyl-succinonitrile, and a solid phase, which consists of enzyme immobilized on an insoluble support. Three-phase reaction mixtures are prepared by the procedure described for two-phase reaction mixture except that an enzyme immobilized on an insoluble support is used in place of an un-immobilized enzyme.

For `CC(C)CC(C#N)CC#N` (racemic) [2-isobutyl-succinonitrile], the solubility was about 60 mM (≈ 8170 µg/mL).

Source: US8304252B2, “Stereoselective bioconversion of aliphatic dinitriles into cyano carboxylic acids” (Pfizer Inc., priority 2004, dated 2012)
